Source: patent US20250243427A1, “PRECURSORS OF PHENOLIC FRAGRANT COMPOUNDS” (GIVAUDAN SA, priority 2021, published 2025)

How the values were obtained:
[1] = Odor description on paper blotter; conditions: 1% solution in EtOH on paper blotter, 24 h
[2] = Washtest and sensory evaluation of fabric washed with liquid detergent; conditions: for odor intensity, 1 day / odor intensity, 4 days / odour intensity, 1 day / odour intensity, 4 days: scale 0 to 5; for odor intensity, wet / odour intensity, wet: wet fabric, scale 0 (odorless) to 5 (extremely strong); for odour intensity, wet: Table 2 (position of double bond); for odour intensity, 1 day / odour intensity, 4 days: Table 2
Protocol: The wet and line-dried fabric (1 and 4 days) was assessed by a panel of 4-6 experts with regard to odor intensity and quality. The odor intensity was recorded on an intensity scale of 0 (odorless) to 5 (extremely strong).
The odour intensity was recorded on an intensity scale of 0 (odorless) to 5 (extremely strong).
Liquid detergent samples were prepared and used in washtests and subsequent sensory evaluation of the washed and dried fabric as described in Example 45a and c. The odor intensity was recorded on an intensity scale of 0 (odorless) to 5 (extremely strong).

[3] = Biodegradability, manometric respirometry test (OECD 301F); parameters: key to result (biodegradable class; cell wraps to 'biodegradable'): A compound is readily biodegradable, if the pass level is reached within 10 days within the 28-day period of the test; If the pass level is obtained after 28-day period of the test, the compound can be classified as inherently biodegradable; conditions: for result (biodegradable class; cell wraps to 'biodegradable'): 28-day test, 10-day window; for Biodegradation in %: pass level 60% oxygen consumption of theory
Description: The results of the biodegradability assessment by the manometric respirometry test (OECD guideline for the testing of materials No. 301F, Paris 1992) are summarized in Table 5.
A compound can be classified biodegradable, if it reaches the pass level of 60% oxygen consumption of theory required for complete mineralization.
A compound is readily biodegradable, if the pass level is reached within 10 days within the 28-day period of the test. The 10-day window begins when the degree of biodegradation has reached 10%. If the pass level is obtained after 28-day period of the test, the compound can be classified as inherently biodegradable.

[4] = Malodour reduction on washed fabric, trained sensory panel; conditions: 4 day dry cloth washed with unit dose containing 2% of a 10% solution in trietylcitrate, + Male Sweat Malodour, 0-100 line scale; for Perceived Fragrance Intensity: control set at 0; for Perceived Malodour Intensity: malodour control set at 40
Protocol: Fabrics (18 cm×14 cm cotton jersey) were stripped before use. They were then washed in European washing machines (40° C.—1,000 spin/min) with one unit dose (65 g) used per wash load. The unit dose contained 2% of a 10% solution of the compound of formula 1 in trietylcitrate. • a) Compound of example 33 • b) Compound of example 34 • c) Compound of example 1
The total wash load was 1.6 kg made up of test cloths and hand towels (100% cotton) as ballast. The cloth was line dried and left overnight in a perfume free room at 25° C., left to hang for 3 days and then wrapped in foil the day prior to the test (day 3). 30 minutes before the assessment, 50 μL of the pure Male Sweat malodour was placed on top of a cotton pad and introduced into a 500 ml powder jar. One cotton jersey square was then placed over the top of the powder jar and secured with a rubber band. Every sample tested was coded with a random code number.
The malodour and fragrance perceived intensities were assessed by the trained sensory panel using a 0-100 line scale. All malodour and fragrance perceived intensities were scaled against the malodour control sample. The malodour perceived intensity was set at 40 for Male Sweat malodour and the fragrance perceived intensity was set at 0.
The order of samples assessed by the panelists was pre-determined using a balanced randomisation. The samples were assessed in a sequential monadic way. The products were assessed twice by 14 panelists, thus giving 28 assessments per sample.
Before analysis, the data was checked for outliers and extreme violations to normality.
Reliability of the data was checked and data of panelists with poor discrimination, consensus or repeatability may have been removed from the analysis. The data was analysed using analysis of variance (ANOVA). A 5% significance level (95% confidence level) was used. Separate ANOVAs were carried out for malodour and fragrance intensity. The ANOVA have product, panelist, and replicate as factors. Pairwise comparisons of the products were done using the Benjamini-Hochberg correction for multiple testing. The estimated product means are reported.

[5] = Color stability in liquid detergent, visual inspection; assay type: physicochemical; conditions: 0.2% by weight in unperfumed liquid detergent base, stirred 24 h at room temperature; compared to unperfumed base sample (C)
Description: The above prepared samples were visually inspected in comparison to an unperfumed base sample (sample C).

[6] = Application in shampoo base, odour on hair swatch; conditions: 0.2% by weight in clear hair shampoo base; dried hair swatch 1 and 3 days; panel of 7 experts
Protocol: A hair shampoo sample (20 g) was prepared by adding 0.2% by weight of 3-ethoxy-4-(hex-3-en-1-yloxy)benzaldehyde (compound of example 3) to unperfumed clear hair shampoo base and mixing on a bottle roller for 24 h at room temperature. An odour-neutral human hair swatch was wetted with warm tap water and lathered delicately with 2 mL of the above hair shampoo sample for 30 sec by hand wearing gloves. The lathered hair swatch was left in a plastic bowl for 2 min, then rinsed under running tap water for 20 sec. After removing excess water by squeezing the hair swatch between two fingers, it was left to dry in open air. The odour of the wet and dried hair swatch (1 and 3 days) was assessed by a panel of 7 experts.

[7] = Table 3, liquid detergent washtest
[8] = Table 3, liquid detergent washtest, dry fabric 1 day
[9] = Table 3, liquid detergent washtest, dry fabric 4 days
[10] = liquid detergent washtest, dry fabric 1 day
[11] = liquid detergent washtest, dry fabric 4 days

Row | result (biodegradable class; cell wraps to 'biodegradable') [3] | Biodegradation in % [3] [%] | Compound | Odor description [1] | odor on dry fabric [2, 7] | odor intensity, 1 day [2, 8] | odor intensity, 4 days [2, 9] | odor intensity, wet [2, 7] | Perceived Fragrance Intensity [4] | Perceived Malodour Intensity [4] | Color of liquid detergent sample (visual inspection) [5] | odour intensity, wet ([2]; liquid detergent washtest) | odour intensity, 1 day [2, 10] | odour intensity, 4 days [2, 11] | odour perceived on dry hair swatch [6] | odor released from washed T-shirts ([2]; 0.2% in liquid detergent, 40° C. machine wash, after 1 and 4 days) | odor intensity, 1 day ([2]; Table 1, 0.2% in liquid detergent, 40° C. machine wash, line-dried fabric 1 day) | odor intensity, 4 days ([2]; Table 1, 0.2% in liquid detergent, 40° C. machine wash, line-dried fabric 4 days) | odor intensity, wet ([2]; Table 1, 0.2% in liquid detergent, 40° C. machine wash)
1 | inherently | 66 | CC=CCCOc1ccc(C=O)cc1OCC [Example 33, 3-ethoxy-4-(pent-3-en-1-yloxy)benzaldehyde] | mild, powdery, vanilla, peppery | – | – | – | – | 22.3 | 26.5 | – | 1.1 | 3.2 | 3.8 | – | – | – | – | –
2 | inherently | 61 | CC/C=C\CCOc1ccc(C=O)cc1OCC [Example 1, (Z)-3-ethoxy-4-(hex-3-en-1-yloxy)benzaldehyde] | powdery (vanillin) creamy | – | – | – | – | 18.3 | 29.5 | optically identical to the unperfumed base | 3.2 | 3.2 | 3.6 | – | strong vanilla, sweet, powdery and creamy fragrance | 3 | 3.7 | 1.3

More lines, now with the values behind:

Row | Compound | result (biodegradable class; cell wraps to 'biodegradable') [3] | Biodegradation in % [3] [%] | Odor description [1] | odor on dry fabric [2, 7] | odor intensity, 1 day [2, 8] | odor intensity, 4 days [2, 9] | odor intensity, wet [2, 7] | Perceived Fragrance Intensity [4] | Perceived Malodour Intensity [4] | Color of liquid detergent sample (visual inspection) [5] | odour intensity, wet ([2]; liquid detergent washtest) | odour intensity, 1 day [2, 10] | odour intensity, 4 days [2, 11] | odour perceived on dry hair swatch [6] | odor released from washed T-shirts ([2]; 0.2% in liquid detergent, 40° C. machine wash, after 1 and 4 days) | odor intensity, 1 day ([2]; Table 1, 0.2% in liquid detergent, 40° C. machine wash, line-dried fabric 1 day) | odor intensity, 4 days ([2]; Table 1, 0.2% in liquid detergent, 40° C. machine wash, line-dried fabric 4 days) | odor intensity, wet ([2]; Table 1, 0.2% in liquid detergent, 40° C. machine wash)
3 | CCOc1cc(C=O)ccc1OCCC=C(C)C [Example 34, 3-ethoxy-4-((4-methylpent-3-en-1-yl)oxy)benzaldehyde] | inherently | 69 | powdery, vanilla, chocolate | vanilla | 3.3 | 3.4 | 1.5 | 31.1 | 20.6 | – | – | – | – | – | – | – | – | –
4 | CCOc1cc(C=O)ccc1O [Ethylvanillin (A), 3-ethoxy-4-hydroxybenzaldehyde, reference compound] | – | – | – | – | – | – | – | – | – | strong brown-purple coloration | – | – | – | – | – | – | – | –
5 | CCC=CCCOc1ccc(C=O)cc1OCC [Example 3, 3-ethoxy-4-(hex-3-en-1-yloxy)benzaldehyde] | – | – | powdery sweet (vanilla) | – | – | – | – | – | – | – | – | – | – | Five out of seven experts perceived a vanilla note | – | – | – | –
6 | CC/C=C\CCOc1ccc(CCC(C)=O)cc1 [Example 6, (Z)-4-(4-(hex-3-en-1-yloxy)phenyl)butan-2-one] | readily | 82 | raspberry | raspberry | 2.8 | 3.6 | 3.0 | – | – | – | – | – | – | – | – | – | – | –
